Where a SMILES comes first, the peptide text is derived from it. Where no end group is shown, it is not given here. [ ]: non-standard residue; d: D form. d(hArg(Et2)) = CCN=C(NCC)NCCCC[C@@H](N)C(=O)O; hArg(Et2) = CCN=C(NCC)NCCCC[C@H](N)C(=O)O; dPhe(4-Cl) = N[C@H](Cc1ccc(Cl)cc1)C(=O)O; d2Nal = N[C@H](Cc1ccc2ccccc2c1)C(=O)O; d3Pal = N[C@H](Cc1cccnc1)C(=O)O
What was measured:
[1] = test system: cumulus-enclosed oocytes; assay: Germinal vesicle breakdown in cultured cumulus-enclosed oocytes; assay type: cell-based, rat; conditions: for oocyte maturation (germinal vesicle breakdown): cultured cumulus-enclosed oocytes from preovulatory follicles, FIG. 1D
Description: (§1) Cumulus-enclosed oocytes (CEO) were collected and cultured as described (Vaknin et al. PMID: 11133687). Briefly, female rats at 26 d of age were injected with 15 IU pregnant mare serum gonadotropin (PMSG). After 48-50 h, ovaries were dissected in Leivovitz's L-15 medium (Invitrogen Corp., Carlsbad, Calif.) supplemented with 5% fetal bovine serum and 100 μg/ml of penicillin and streptomycin. The CEOs were collected by puncturing the largest ovarian follicles in the L15 medium containing 0.25 mM of MIX within 20 min, washed twice in L15 medium without MIX and transfer to test medium. The CEO were cultured with or without different doses of rat INSL3 in L15 medium without both FBS and IBMX. For controls, the CEOs were cultured in L15 medium with IBMX. At the end of culture, the occurrence of germinal vesicle breakdown (GVBD) in oocyte was examined after removing cumulus cells surrounding CEO by a small-bore pipette under Hoffman modulation contrast microscopy (Nikon Inc., Tokyo, Japan). For preovulatory follicles, follicles were excised from the ovary after PMSG treatment for 48 h. The follicles, 20-30 per vial, were cultured with or without different doses of rat INSL3 or LH in L15 medium without FBS. The vials were flushed at the start of the culture with O2/N2 (1/1) and cultured at 37C with gently shaking. After culture, individual CEO was dissected from each follicle to examine the occurrence of GVBD. For cAMP determination, 20 to 30 denuded oocytes were cultured with or without rat INSL3 (10 nM) in L15 medium containing 10 μM of cilostamide with or without 50 μM of forskolin. After treatment, oocytes were collected in 2 μl of medium, frozen and thawed to break the cells before acetylation of samples with triethylamine and acetic anhydride (3:1). Intra-oocyte cyclic AMP levels were determined by radioimmunoassay as previously described (Davoren, Hsuch, 1985).

[2] = test system: preovulatory follicles; assay: Oocyte maturation (GVBD) in cultured intact preovulatory follicles; assay type: cell-based, rat
Description: as §1, with “Briefly,” for “Cumulus-enclosed oocytes (CEO) were collected and cultured as described (Vaknin et al. PMID: 11133687). Briefly,”, “For preovulatory follicles, follicles were excised from the ovary after PMSG treatment for 48 h. The follicles, 20-30 per vial, were cultured with or without different doses of rat INSL3 or LH in L15 medium without FBS.” left out, “(3:1).” for “(3:1). Intra-oocyte cyclic AMP levels were determined by radioimmunoassay as previously described (Davoren, Hsuch, 1985).”

[3] = test system: oocyte; assay: Gonadotropin induction of ovulation with pertussis toxin co-treatment
[4] = test system: seminiferous tubular cells; assay: cAMP production by seminiferous tubular cells; assay type: cell-based, rat; conditions: FIG. 2D
Description: Seminiferous tubular cells were treated with different hormones or forskolin (FSK) for 12 h before cAMP determination. Some cells were also pretreated with PT before hormonal treatment (filled circles) to suppress Gi activity. B: basal.
Seminiferous tubular cells were isolated by the method of Nagao (1989) In Vitro Cell Dev Biol 25:1088-1098, with modifications. Briefly, testes were decapsulated and incubated for 15 minutes in PBS containing 0.25% collagenase with occasional shaking. After collecting interstitial cells released from the preparation, seminiferous tubules were washed, and incubated with 0.25% trypsin to disperse tubular cells. The resulting cell suspension was filtered through 100 μm nylon mesh to remove cell aggregates and tissue debris, after which the tubular cells were collected by centrifugation.
Total cAMP in each well was measured in triplicate with primary cultured cells by a specific radioimmunoassay as previously described by Davoren and Hsuch (1985) Biol Reprod 33:37-52. All experiments were repeated at least four times.

[5] = test system: male germ cells; assay: Gonadotropin deprivation model: testis apoptotic DNA fragmentation; assay type: in vivo, rat
Description: (§2) Male Sprague-Dawley rats at 28 days of age were treated subcutaneously with GnRH antagonist (250 μg/kg/day) to suppress pituitary gonadotropin secretion. […] Animals were killed 5 days after initial treatment and organ weight determined. Testes were stored at −70° C. before RNA or DNA extraction or fixed in Bouin's solution for in situ labeling of DNA ends.
DNA from whole testis was isolated and quantitated with spectrophotometry at 260 nm. Aliquots of DNA (500 ng) from each sample were labeled at 3′-ends with 32P-dideoxy-ATP (3,000 Ci/mmol: Amersham. Arlington Heights, Ill.) using terminal transferase (25 U/sample; Boehringey-Mannheim, Indianapolis, Ind.) as described. Labeled samples were fractionated through 2% agarose gels. After electrophoresis, gels were dried for 2 h in a slab-gel dryer without heat and exposed to Kodak X-OMAT AR films (Eastman Kodak Co., Rochester, N.Y.) at −70 C. After autoradiography, portions of each lane corresponding to DNA less than 10 kilobases (kb) were isolated and counted in a y-spectrometer for estimating the degree of intenucleosomal DNA fragmentation. For in situ DNA 3′-end labeling, fixed testicular tissues were embedded in paraffin, and cut in 3 μm sections. To detect apoptotic DNA fragmentation, the in situ cell death detection kit (Roche Diagnostics, Mannheim, Germany) was used according to manufacturer's instruction and sections counterstained with hematoxylin.

[6] = test system: testis; assay type: in vivo, rat
Description: C) Analysis of apoptotic DNA fragmentation in testes using 3′-end DNA labeling with the terminal transferase, followed by gel fractionation and autoradiography. D) In situ staining of apoptotic DNA fragmentation in seminiferous tubules using the TUNNEL method.
as §2

[7] = test system: INSL3 message; assay: Gonadotropin deprivation model: testis INSL3 mRNA (Northern blot); assay type: in vivo, rat; conditions: FIG. 4B
Description: as §2

[8] = target: T1, recombinant LGR8 (Homo sapiens, UniProt Q8WXD0); conditions: 293T cells expressing recombinant LGR8; cited from earlier work
T1 construct: expressed in transfected cells; host or cells: human 293T cells, calcium phosphate transfection

[9] = test system: gubernacular cells; conditions: cited from earlier work
[10] = test system: oocytes of preovulatory follicles; assay: In vivo oocyte maturation after intrabursal injection in PMSG-primed rats; parameters: species or system rat; conditions: FIG. 3C
Description: To study the effect of INSL3 on oocyte maturation in vivo, intrabursal injection was performed (Vaknin et al. PMID: 11133687). Immature PMSG-treated rats were lightly anesthetized by ether, and one of the ovaries was exteriorized through a small lumbosacral incision. Rat INSL3, dissolved in 100 μl of PBS, was injected through a 30-gauge needle threaded into the ovarian bursa via the adjoining fat pad. After injection, the ovary was replaced into the abdominal cavity, and skin was clipped. Eight hours later, CEOs were collected by puncturing the largest ovarian follicles to examine the occurrence of oocyte GVBD.

T1 sequence (Q8WXD0 whole entry): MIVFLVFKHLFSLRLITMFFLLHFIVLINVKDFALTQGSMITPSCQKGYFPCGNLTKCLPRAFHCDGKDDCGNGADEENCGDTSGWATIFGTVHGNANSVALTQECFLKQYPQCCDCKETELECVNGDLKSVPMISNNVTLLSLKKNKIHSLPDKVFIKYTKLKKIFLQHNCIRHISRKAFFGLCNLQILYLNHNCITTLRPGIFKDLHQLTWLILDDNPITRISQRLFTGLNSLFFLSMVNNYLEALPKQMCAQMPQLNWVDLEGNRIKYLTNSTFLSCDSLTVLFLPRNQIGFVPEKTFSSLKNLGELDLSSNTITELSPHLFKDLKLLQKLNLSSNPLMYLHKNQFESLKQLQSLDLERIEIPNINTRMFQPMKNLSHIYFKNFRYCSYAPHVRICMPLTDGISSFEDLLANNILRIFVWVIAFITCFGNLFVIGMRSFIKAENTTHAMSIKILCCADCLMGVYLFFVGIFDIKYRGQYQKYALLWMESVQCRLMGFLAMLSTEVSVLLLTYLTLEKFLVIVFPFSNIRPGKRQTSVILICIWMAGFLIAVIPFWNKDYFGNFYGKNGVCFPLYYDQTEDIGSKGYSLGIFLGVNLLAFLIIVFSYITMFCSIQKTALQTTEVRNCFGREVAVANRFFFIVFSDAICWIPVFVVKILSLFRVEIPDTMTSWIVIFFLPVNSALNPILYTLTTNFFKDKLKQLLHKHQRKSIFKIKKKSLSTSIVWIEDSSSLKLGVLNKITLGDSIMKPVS

## CC(C)Cn1c(=O)n(C)c(=O)c2[nH]cnc21 [MIX, reference compound]
[1]
  oocyte maturation (germinal vesicle breakdown): completely blocked oocyte maturation

## pertussis toxin
[2]; pertussis toxin with INSL3, FIG. 1G
  effect on INSL3 induction of oocyte maturation: partially blocked the INSL3 induction of oocyte maturation
[2]; pertussis toxin with LH, FIG. 1G
  effect on LH induction of oocyte maturation: partially blocked the LH induction of oocyte maturation at lower (50 and 100 ng/ml), but not higher, doses of LH
[3]
  follicle rupture: without affecting follicle rupture
  gonadotropin induction of oocyte maturation: blocks the gonadotropin induction of oocyte maturation
[4]; pertussis toxin pretreatment
  effect on the suppressive effect of INSL3 on cAMP: suppressive effect of INSL3 was blocked

## CCN=C(NCC)NCCCC[C@H](NC(=O)[C@H](CC(C)C)NC(=O)[C@@H](CCCCNC(=NCC)NCC)NC(=O)[C@H](Cc1ccc(O)cc1)NC(=O)[C@H](CO)NC(=O)[C@@H](Cc1cccnc1)NC(=O)[C@@H](Cc1ccc(Cl)cc1)NC(=O)[C@@H](Cc1ccc2ccccc2c1)NC(C)=O)C(=O)N1CCC[C@H]1C(=O)N[C@H](C)C(N)=O [GnRH antagonist, ganirelix acetate] (Ac-[d2Nal][dPhe(4-Cl)][d3Pal]SY[d(hArg(Et2))]L[hArg(Et2)]P[dA]-NH2)
[5]; GnRH antagonist alone, FIG. 4D panel e
  in situ staining of DNA fragments in seminiferous tubules: the majority of tubules showed labeled cells corresponding to meiotic pachytene spermatocytes and postmeiotic spermatids
[5]; GnRH antagonist alone, internucleosomal DNA fragmentation, FIG. 4C
  apoptotic DNA fragmentation in testis: increased apoptotic DNA fragmentation
[6]; immature rats, GnRH antagonist alone, five days, FIG. 4A
  testis weight: decreased testis weight
[6]; rat, in vivo
  weight change in kidney or heart: no weight change in kidney or heart was detected
[7]
  testis INSL3 message levels: decreased INSL3 message levels

## INSL3: Insulin-like hormone superfamily member with B chain and A chain; rat INSL3 chemically synthesized; ligand of LGR8 (chain 1 QPPEARAKLCGHHLVRALVRVCGGPRWSPEA; chain 2 SVATNAVHRCCLTGCTQQDLLGLCPH; ends and bridges not checked; cysteine pairing not given here)
[8]
  cAMP production: stimulatory effects
[5]; co-treatment with GnRH antagonist, FIG. 4C
  apoptosis induced by GnRH antagonist (internucleosomal DNA fragmentation): blocked apoptosis
[5]; co-treatment with GnRH antagonist, FIG. 4D panel f
  in situ staining of DNA fragments in seminiferous tubules: blocked the apoptosis-inducing action of the GnRH antagonist
[6]; co-treatment with GnRH antagonist, five days, FIG. 4A
  effect on testis weight decrease caused by GnRH antagonist: partially blocked
[9]
  cAMP production: stimulatory effects
[1]
  oocyte maturation (germinal vesicle breakdown): further augmented oocyte maturation in a dose-dependent manner
[1]; time-course, cumulus-enclosed oocytes, FIG. 1E
  time after culture at which augmentation of oocyte maturation was evident: 2 h
[10]; 8 h after intrabursal injection
  oocyte maturation (germinal vesicle breakdown in preovulatory follicles): induced oocyte maturation
[10]; intrabursal treatment
  follicle rupture: not follicle rupture
[2]; intact preovulatory follicles, FIG. 1F
  oocyte maturation: induced oocyte maturation in a dose-dependent manner
[4]; INSL3 alone, 12 h
  basal cAMP production: basal cAMP production was not affected
[4]; INSL3 with forskolin, 12 h
  cAMP increases induced by forskolin: prevented cAMP increases induced by forskolin in a dose-dependent manner
[4]; co-treatment of INSL3 with FSH
  cAMP levels stimulated by FSH: did not alter cAMP levels

Source: US20050079180A1, “Manipulatin of oocyte maturation and male germ cell survival” (priority 2003, published 2005)
